According to the NIST ThermoML archive (doi:10.1021/je700671t):
Numbers after ± are expanded uncertainties.

Test: xn = mol fraction of the nth substance listed
Details: 101 kPa, Liquid; for viscosity: Capillary tube (Ostwald / Ubbelohde) method

CN(C)C=O [dimethylformamide] + O
viscosity (303.15 K, x1 = 0.3): 2.179 ± 0.014 mPa·s
viscosity (303.15 K, x1 = 0.398): 1.979 ± 0.017 mPa·s
viscosity (303.15 K, x1 = 0.498): 1.675 ± 0.017 mPa·s
viscosity (303.15 K, x1 = 0.599): 1.382 ± 0.015 mPa·s
viscosity (303.15 K, x1 = 0.697): 1.149 ± 0.013 mPa·s
viscosity (303.15 K, x1 = 0.798): 0.985 ± 0.011 mPa·s
viscosity (303.15 K, x1 = 1): 0.766 ± 0.009 mPa·s
mass density (303.15 K, x1 = 0.02): 994.67 ± 0.19 kg/m3
mass density (303.15 K, x1 = 0.04): 994.25 ± 0.15 kg/m3
mass density (303.15 K, x1 = 0.06): 994.14 ± 0.14 kg/m3
mass density (303.15 K, x1 = 0.08): 994.11 ± 0.14 kg/m3
mass density (303.15 K, x1 = 0.1): 994.05 ± 0.14 kg/m3
mass density (303.15 K, x1 = 0.2): 992.19 ± 0.2 kg/m3
mass density (303.15 K, x1 = 0.3): 986.99 ± 0.3 kg/m3
mass density (303.15 K, x1 = 0.398): 979.57 ± 0.35 kg/m3
mass density (303.15 K, x1 = 0.498): 971.95 ± 0.36 kg/m3
mass density (303.15 K, x1 = 0.599): 964.24 ± 0.36 kg/m3
mass density (303.15 K, x1 = 0.697): 957.18 ± 0.35 kg/m3
mass density (303.15 K, x1 = 0.798): 950.87 ± 0.33 kg/m3
mass density (303.15 K, x1 = 1): 939.83 ± 0.28 kg/m3
mass density (308.15 K, x1 = 0.02): 992.74 ± 0.24 kg/m3
mass density (308.15 K, x1 = 0.04): 992.03 ± 0.18 kg/m3
mass density (308.15 K, x1 = 0.06): 991.61 ± 0.16 kg/m3
mass density (308.15 K, x1 = 0.08): 991.29 ± 0.15 kg/m3
mass density (308.15 K, x1 = 0.1): 990.98 ± 0.16 kg/m3
mass density (308.15 K, x1 = 0.2): 988.2 ± 0.22 kg/m3
mass density (308.15 K, x1 = 0.3): 982.55 ± 0.31 kg/m3
mass density (308.15 K, x1 = 0.398): 974.94 ± 0.36 kg/m3
mass density (308.15 K, x1 = 0.498): 967.24 ± 0.36 kg/m3
mass density (308.15 K, x1 = 0.599): 959.49 ± 0.37 kg/m3
mass density (308.15 K, x1 = 0.697): 952.42 ± 0.36 kg/m3
mass density (308.15 K, x1 = 0.798): 946.1 ± 0.34 kg/m3
mass density (308.15 K, x1 = 1): 935.05 ± 0.29 kg/m3
viscosity (313.15 K, x1 = 0.02): 0.783 ± 0.024 mPa·s
viscosity (313.15 K, x1 = 0.04): 0.891 ± 0.024 mPa·s
viscosity (313.15 K, x1 = 0.06): 1.003 ± 0.023 mPa·s
viscosity (313.15 K, x1 = 0.08): 1.103 ± 0.023 mPa·s
viscosity (313.15 K, x1 = 0.1): 1.208 ± 0.03 mPa·s
viscosity (313.15 K, x1 = 0.2): 1.564 ± 0.015 mPa·s
viscosity (313.15 K, x1 = 0.3): 1.66 ± 0.012 mPa·s
viscosity (313.15 K, x1 = 0.398): 1.538 ± 0.013 mPa·s
viscosity (313.15 K, x1 = 0.498): 1.337 ± 0.014 mPa·s
viscosity (313.15 K, x1 = 0.599): 1.14 ± 0.013 mPa·s
viscosity (313.15 K, x1 = 0.697): 0.971 ± 0.012 mPa·s
viscosity (313.15 K, x1 = 0.798): 0.847 ± 0.01 mPa·s
viscosity (313.15 K, x1 = 1): 0.684 ± 0.009 mPa·s
mass density (313.15 K, x1 = 0.02): 990.67 ± 0.29 kg/m3
mass density (313.15 K, x1 = 0.04): 989.66 ± 0.22 kg/m3
mass density (313.15 K, x1 = 0.06): 988.95 ± 0.19 kg/m3
mass density (313.15 K, x1 = 0.08): 988.37 ± 0.19 kg/m3
mass density (313.15 K, x1 = 0.1): 987.8 ± 0.19 kg/m3
mass density (313.15 K, x1 = 0.2): 984.15 ± 0.25 kg/m3
mass density (313.15 K, x1 = 0.3): 978.07 ± 0.33 kg/m3
mass density (313.15 K, x1 = 0.398): 970.26 ± 0.36 kg/m3
mass density (313.15 K, x1 = 0.498): 962.5 ± 0.37 kg/m3
mass density (313.15 K, x1 = 0.599): 954.73 ± 0.37 kg/m3
mass density (313.15 K, x1 = 0.697): 947.64 ± 0.36 kg/m3
mass density (313.15 K, x1 = 0.798): 941.33 ± 0.34 kg/m3
mass density (313.15 K, x1 = 1): 930.27 ± 0.29 kg/m3
mass density (318.15 K, x1 = 0.02): 988.43 ± 0.34 kg/m3
mass density (318.15 K, x1 = 0.04): 987.14 ± 0.27 kg/m3
mass density (318.15 K, x1 = 0.06): 986.17 ± 0.23 kg/m3
mass density (318.15 K, x1 = 0.08): 985.33 ± 0.22 kg/m3
mass density (318.15 K, x1 = 0.1): 984.53 ± 0.22 kg/m3
mass density (318.15 K, x1 = 0.2): 980.05 ± 0.27 kg/m3
mass density (318.15 K, x1 = 0.3): 973.55 ± 0.34 kg/m3
mass density (318.15 K, x1 = 0.398): 965.56 ± 0.37 kg/m3
mass density (318.15 K, x1 = 0.498): 957.73 ± 0.38 kg/m3
mass density (318.15 K, x1 = 0.599): 949.93 ± 0.38 kg/m3
mass density (318.15 K, x1 = 0.697): 942.85 ± 0.37 kg/m3
mass density (318.15 K, x1 = 0.798): 936.53 ± 0.35 kg/m3
mass density (318.15 K, x1 = 1): 925.49 ± 0.3 kg/m3
